# According to PMC5218480 (PLoS ONE, 2017):
# Test system: MV-4-11 cells
# Test: Gene expression microarray analysis (Affymetrix PrimeView) and GSEA
# Assay type: cell-based, human
# Design: RFU PODN (11730768_x_at) / Fold change /veh PODN (11730768_x_at) / RFU LINC00158 (11744669_a_at) / Fold change /veh LINC00158 (11744669_a_at) / RFU DUSP10 (11751237_a_at) / Fold change /veh DUSP10 (11751237_a_at) / RFU ID3 (11757404_x_at) / Fold change /veh ID3 (11757404_x_at) / RFU PLEKHG5 (11737974_s_at) / Fold change /veh PLEKHG5 (11737974_s_at) / RFU LRRC4B (11730491_at) / Fold change /veh LRRC4B (11730491_at) / RFU GIMAP4 (11747438_a_at) / Fold change /veh GIMAP4 (11747438_a_at) / RFU KRT8 (11758183_x_at) / Fold change /veh KRT8 (11758183_x_at) / RFU CNN1 (11734310_a_at) / Fold change /veh CNN1 (11734310_a_at) / RFU VPS37D (11726825_at) / Fold change /veh VPS37D (11726825_at) / RFU C10orf10 (11716522_x_at) / Fold change /veh C10orf10 (11716522_x_at) / RFU KIR2DL2 /// KIR2DL4 /// KIR2DL5A /// KIR2DL5B /// KIR2DS1 /// KIR2DS2 /// KIR2DS3 /// KIR2DS4 /// KIR3DL3 /// KIR3DL3 /// KIR3DS1 (11738374_at) / Fold change /veh KIR2DL2 /// KIR2DL4 /// KIR2DL5A /// KIR2DL5B /// KIR2DS1 /// KIR2DS2 /// KIR2DS3 /// KIR2DS4 /// KIR3DL3 /// KIR3DL3 /// KIR3DS1 (11738374_at) / RFU C1QL1 (11718748_at) / Fold change /veh C1QL1 (11718748_at) / RFU TMPRSS4 (11747572_a_at) / Fold change /veh TMPRSS4 (11747572_a_at) / RFU HAMP (11756126_x_at) / Fold change /veh HAMP (11756126_x_at) / RFU RNFT2 (11725882_a_at) / Fold change /veh RNFT2 (11725882_a_at) / RFU NR4A2 (11747474_a_at) / Fold change /veh NR4A2 (11747474_a_at) / RFU ABCC12 (11746883_a_at) / Fold change /veh ABCC12 (11746883_a_at) / RFU TMEM136 (11760407_x_at) / Fold change /veh TMEM136 (11760407_x_at) / RFU CLDN22 /// WWC2 (11732394_at) / Fold change /veh CLDN22 /// WWC2 (11732394_at) / RFU HLA-DPB1 (11760878_x_at) / Fold change /veh HLA-DPB1 (11760878_x_at) / RFU SPINT1 (11716480_a_at) / Fold change /veh SPINT1 (11716480_a_at) / RFU GAP43 (11754022_s_at) / Fold change /veh GAP43 (11754022_s_at) / RFU A4GNT (11735810_at) / Fold change /veh A4GNT (11735810_at) / RFU PRB3 (11715151_x_at) / Fold change /veh PRB3 (11715151_x_at) / RFU TUBB4B (11761932_at) / Fold change /veh TUBB4B (11761932_at) / RFU CAPN14 (11732068_a_at) / Fold change /veh CAPN14 (11732068_a_at) / RFU TMCC2 (11721928_a_at) / Fold change /veh TMCC2 (11721928_a_at) / RFU IRGQ (11745062_a_at) / Fold change /veh IRGQ (11745062_a_at) / RFU FAM174B (11720279_a_at) / Fold change /veh FAM174B (11720279_a_at) / RFU TMPRSS4 (11748680_a_at) / Fold change /veh TMPRSS4 (11748680_a_at) / RFU FAM212B (11763350_a_at) / Fold change /veh FAM212B (11763350_a_at) / RFU PLEKHG5 (11743358_a_at) / Fold change /veh PLEKHG5 (11743358_a_at) / RFU ZSCAN30 (11745921_a_at) / Fold change /veh ZSCAN30 (11745921_a_at) / RFU CMKLR1 (11741424_a_at) / Fold change /veh CMKLR1 (11741424_a_at) / RFU LOC101060620 /// MAPK8IP1 (11723275_at) / Fold change /veh LOC101060620 /// MAPK8IP1 (11723275_at) / RFU SPTSSB (11747773_x_at) / Fold change /veh SPTSSB (11747773_x_at) / RFU PRSS12 (11739890_at) / Fold change /veh PRSS12 (11739890_at) / RFU BIN1 (11741810_x_at) / Fold change /veh BIN1 (11741810_x_at) / RFU WNT11 (11732464_a_at) / Fold change /veh WNT11 (11732464_a_at) / RFU C10orf10 (11716521_a_at) / Fold change /veh C10orf10 (11716521_a_at) / RFU C5orf56 (11738089_at) / Fold change /veh C5orf56 (11738089_at) / RFU CYB561 (11721691_x_at) / Fold change /veh CYB561 (11721691_x_at) / RFU ANKRD19P (11752326_a_at) / Fold change /veh ANKRD19P (11752326_a_at) / RFU OR2T12 /// OR2T33 /// OR2T8 (11738714_s_at) / Fold change /veh OR2T12 /// OR2T33 /// OR2T8 (11738714_s_at) / RFU VCAN (11748164_a_at) / Fold change /veh VCAN (11748164_a_at) / RFU JSRP1 (11732532_at) / Fold change /veh JSRP1 (11732532_at) / RFU KRTAP10-11 (11738290_x_at) / Fold change /veh KRTAP10-11 (11738290_x_at) / RFU MYO3A (11730013_a_at) / Fold change /veh MYO3A (11730013_a_at) / RFU EBF3 (11725865_a_at) / Fold change /veh EBF3 (11725865_a_at) / RFU CAMK2N1 (11719241_x_at) / Fold change /veh CAMK2N1 (11719241_x_at) / RFU C5orf56 (11738088_a_at) / Fold change /veh C5orf56 (11738088_a_at) / RFU OLFML3 (11715873_a_at) / Fold change /veh OLFML3 (11715873_a_at) / RFU LOC100653217 /// NTM (11731650_a_at) / Fold change /veh LOC100653217 /// NTM (11731650_a_at) / RFU MAPK11 (11762145_a_at) / Fold change /veh MAPK11 (11762145_a_at) / RFU FIZ1 (11724087_x_at) / Fold change /veh FIZ1 (11724087_x_at) / RFU OASL (11726364_x_at) / Fold change /veh OASL (11726364_x_at) / RFU SOX15 (11748057_x_at) / Fold change /veh SOX15 (11748057_x_at) / RFU CD79A (11719716_a_at) / Fold change /veh CD79A (11719716_a_at) / RFU HIST1H1D (11736915_at) / Fold change /veh HIST1H1D (11736915_at) / RFU CASKIN2 (11723855_a_at) / Fold change /veh CASKIN2 (11723855_a_at) / RFU LOC730098 (11760151_x_at) / Fold change /veh LOC730098 (11760151_x_at) / RFU OR4N2 (11742367_at) / Fold change /veh OR4N2 (11742367_at) / RFU PRRT2 (11749266_a_at) / Fold change /veh PRRT2 (11749266_a_at) / RFU SNX32 (11753110_a_at) / Fold change /veh SNX32 (11753110_a_at) / RFU CDHR5 (11726645_a_at) / Fold change /veh CDHR5 (11726645_a_at) / RFU RCAN1 (11760418_a_at) / Fold change /veh RCAN1 (11760418_a_at) / RFU FAM167A (11723789_a_at) / Fold change /veh FAM167A (11723789_a_at) / RFU FAM26E (11764081_at) / Fold change /veh FAM26E (11764081_at) / RFU ISYNA1 (11749810_s_at) / Fold change /veh ISYNA1 (11749810_s_at) / RFU ACY1 (11761880_at) / Fold change /veh ACY1 (11761880_at) / RFU 11764098_at / Fold change /veh 11764098_at / RFU SAMD14 (11745864_x_at) / Fold change /veh SAMD14 (11745864_x_at) / RFU NPB (11741838_a_at) / Fold change /veh NPB (11741838_a_at) / RFU TMPRSS6 (11731388_a_at) / Fold change /veh TMPRSS6 (11731388_a_at) / RFU KRTAP10-2 (11738614_at) / Fold change /veh KRTAP10-2 (11738614_at) / RFU ARHGAP8 /// PRR5-ARHGAP8 (11727945_x_at) / Fold change /veh ARHGAP8 /// PRR5-ARHGAP8 (11727945_x_at) / RFU KRTAP5-7 /// NADSYN1 (11734609_at) / Fold change /veh KRTAP5-7 /// NADSYN1 (11734609_at) / RFU RASL12 (11751679_a_at) / Fold change /veh RASL12 (11751679_a_at) / RFU CDKN2B (11736163_a_at) / Fold change /veh CDKN2B (11736163_a_at) / RFU PRF1 (11729649_at) / Fold change /veh PRF1 (11729649_at) / RFU, ZNF638 /// ZNF638-IT1 / Fold change vs veh, ZNF638 /// ZNF638-IT1 / RFU, PANK3 / Fold change vs veh, PANK3 / RFU, SH3YL1 / Fold change vs veh, SH3YL1 / RFU, ZEB2 / Fold change vs veh, ZEB2 / RFU, NRIP1 / Fold change vs veh, NRIP1 / RFU, PTTG1IP / Fold change vs veh, PTTG1IP / RFU, CAPN2 / Fold change vs veh, CAPN2 / RFU, MED14 / Fold change vs veh, MED14 / RFU, SNORA58 / Fold change vs veh, SNORA58 / RFU, C1orf63 / Fold change vs veh, C1orf63 / RFU, LRRFIP1 / Fold change vs veh, LRRFIP1 / RFU, NDUFAF7 / Fold change vs veh, NDUFAF7 / RFU, SLC12A2 / Fold change vs veh, SLC12A2 / RFU, IBTK / Fold change vs veh, IBTK / RFU, ESF1 / Fold change vs veh, ESF1 / Fold change vs veh, TMEM50B / RFU, TAOK1 / Fold change vs veh, TAOK1 / RFU, ACBD3 / Fold change vs veh, ACBD3 / RFU, TMA16 / Fold change vs veh, TMA16 / RFU, RWDD3 / Fold change vs veh, RWDD3 / RFU, BCAT1 / Fold change vs veh, BCAT1 / RFU, EDEM3 / Fold change vs veh, EDEM3 / RFU, TMEM33 / Fold change vs veh, TMEM33 / RFU, WDR75 / Fold change vs veh, WDR75 / RFU, AHCTF1 / Fold change vs veh, AHCTF1 / RFU, TFRC / Fold change vs veh, TFRC / RFU, ZDHHC17 / Fold change vs veh, ZDHHC17 / RFU, NOM1 / Fold change vs veh, NOM1 / RFU, ARL8B / Fold change vs veh, ARL8B / RFU, ZBTB11 / Fold change vs veh, ZBTB11 / RFU, TAMM41 / Fold change vs veh, TAMM41 / RFU, KIAA1704 /// LOC100996395 / Fold change vs veh, KIAA1704 /// LOC100996395 / RFU, ING1 / Fold change vs veh, ING1 / RFU, TRMT61B / Fold change vs veh, TRMT61B / RFU, FUBP3 / Fold change vs veh, FUBP3 / RFU, TP53 / Fold change vs veh, TP53 / RFU, TNKS2 / Fold change vs veh, TNKS2 / RFU, ZFP14 / Fold change vs veh, ZFP14 / RFU, ACTR2 / Fold change vs veh, ACTR2 / RFU, PPP3R1 / Fold change vs veh, PPP3R1 / RFU, PIK3R1 / Fold change vs veh, PIK3R1 / RFU, HNRNPA1 / Fold change vs veh, HNRNPA1 / RFU, RNF170 / Fold change vs veh, RNF170 / RFU, ZNF28 / Fold change vs veh, ZNF28 / RFU, RNGTT / Fold change vs veh, RNGTT / RFU, OGT / Fold change vs veh, OGT / RFU, BRD1 / Fold change vs veh, BRD1 / RFU, MARS / Fold change vs veh, MARS / RFU, ZNF655 / Fold change vs veh, ZNF655 / RFU, FAHD1 / Fold change vs veh, FAHD1 / RFU, BDP1 / Fold change vs veh, BDP1 / RFU, LRRCC1 / Fold change vs veh, LRRCC1 / RFU, ARID1A / Fold change vs veh, ARID1A / RFU, ZNF146 / Fold change vs veh, ZNF146 / RFU, ZNF330 / Fold change vs veh, ZNF330 / RFU, GPN3 / Fold change vs veh, GPN3 / RFU, C9orf123 / Fold change vs veh, C9orf123 / RFU, N4BP2L2 / Fold change vs veh, N4BP2L2 / RFU, ARFIP1 / Fold change vs veh, ARFIP1 / RFU, FAM179B / Fold change vs veh, FAM179B / RFU, BCL10 / Fold change vs veh, BCL10 / RFU, UHRF1BP1L / Fold change vs veh, UHRF1BP1L / RFU, BET1 / Fold change vs veh, BET1 / RFU, CNOT2 / Fold change vs veh, CNOT2 / RFU, ZNF268 / Fold change vs veh, ZNF268 / Fold change vs veh, ZNF507 / RFU, DGCR2 / Fold change vs veh, DGCR2 / RFU, WDSUB1 / Fold change vs veh, WDSUB1 / Fold change vs veh, HSP90B1 /// MIR3652 / RFU, ADSS / Fold change vs veh, ADSS / RFU, GK / Fold change vs veh, GK / RFU, ZNF148 / Fold change vs veh, ZNF148 / RFU, TAF9 / Fold change vs veh, TAF9 / RFU, SLC1A5 / Fold change vs veh, SLC1A5 / RFU, SLMO2 / Fold change vs veh, SLMO2 / RFU, ABCC4 / Fold change vs veh, ABCC4 / RFU, LOC101060439 /// RAP1B / Fold change vs veh, LOC101060439 /// RAP1B / RFU, RFX7 / Fold change vs veh, RFX7 / RFU, GTPBP10 / Fold change vs veh, GTPBP10 / RFU, CNEP1R1 / Fold change vs veh, CNEP1R1 / RFU, BIVM-ERCC5 /// ERCC5 / Fold change vs veh, BIVM-ERCC5 /// ERCC5 / RFU, ILF3 / Fold change vs veh, ILF3 / RFU 11762660_at / Fold change /veh 11762660_at / RFU VCAN (11757783_s_at) / Fold change /veh VCAN (11757783_s_at) / RFU DDX43 (11728927_at) / Fold change /veh DDX43 (11728927_at) / RFU KRT8 (11758188_x_at) / Fold change /veh KRT8 (11758188_x_at) / RFU NKD1 (11759106_at) / Fold change /veh NKD1 (11759106_at) / RFU SRD5A1 (11742802_a_at) / Fold change /veh SRD5A1 (11742802_a_at) / RFU TPSAB1 /// TPSB2 (11721975_s_at) / Fold change /veh TPSAB1 /// TPSB2 (11721975_s_at) / RFU GSTM3 (11746129_a_at) / Fold change /veh GSTM3 (11746129_a_at) / RFU IL23R (11737362_x_at) / Fold change /veh IL23R (11737362_x_at) / RFU TMEM51 (11727254_a_at) / Fold change /veh TMEM51 (11727254_a_at) / RFU PIWIL2 (11732686_x_at) / Fold change /veh PIWIL2 (11732686_x_at) / RFU ORM1 (11744905_x_at) / Fold change /veh ORM1 (11744905_x_at) / RFU CCDC152 (11743942_at) / Fold change /veh CCDC152 (11743942_at) / RFU ECM1 (11717891_a_at) / Fold change /veh ECM1 (11717891_a_at) / RFU IL23R (11748794_a_at) / Fold change /veh IL23R (11748794_a_at) / RFU TNFAIP8L3 (11732012_x_at) / Fold change /veh TNFAIP8L3 (11732012_x_at) / RFU MBOAT4 (11741988_at) / Fold change /veh MBOAT4 (11741988_at) / RFU 11764193_at / Fold change /veh 11764193_at / RFU TMEM53 (11763286_at) / Fold change /veh TMEM53 (11763286_at) / RFU MAGEB2 (11727129_at) / Fold change /veh MAGEB2 (11727129_at) / RFU TMEM200A (11744735_a_at) / Fold change /veh TMEM200A (11744735_a_at) / RFU CCDC152 (11751479_a_at) / Fold change /veh CCDC152 (11751479_a_at) / RFU FAM211A (11726209_a_at) / Fold change /veh FAM211A (11726209_a_at) / RFU RGS16 (11746705_a_at) / Fold change /veh RGS16 (11746705_a_at) / RFU VCAN (11755009_s_at) / Fold change /veh VCAN (11755009_s_at) / RFU RHOB (11743442_s_at) / Fold change /veh RHOB (11743442_s_at) / RFU RGS16 (11720943_a_at) / Fold change /veh RGS16 (11720943_a_at) / RFU RGS16 (11720944_at) / Fold change /veh RGS16 (11720944_at) / RFU, VPS4B / Fold change vs veh, VPS4B / RFU, CREB1 / Fold change vs veh, CREB1 / RFU, DNAJC13 / Fold change vs veh, DNAJC13 / RFU, GNAQ / Fold change vs veh, GNAQ / RFU, CDK5R1 / Fold change vs veh, CDK5R1 / RFU, ZRANB3 / Fold change vs veh, ZRANB3 / RFU, CUL4A / Fold change vs veh, CUL4A / RFU, CCNY / Fold change vs veh, CCNY / RFU, UFL1 / Fold change vs veh, UFL1 / RFU, COG3 / Fold change vs veh, COG3 / RFU, DIAPH2 / Fold change vs veh, DIAPH2 / RFU, SKA2 / Fold change vs veh, SKA2 / RFU, AFF3 / Fold change vs veh, AFF3 / RFU, LMF1 / Fold change vs veh, LMF1 / RFU, IPO11 / Fold change vs veh, IPO11 / RFU, DFFB / Fold change vs veh, DFFB / RFU, FOXP1 / Fold change vs veh, FOXP1 / RFU, CARD8 / Fold change vs veh, CARD8 / RFU, STRN3 / Fold change vs veh, STRN3 / RFU, ADK / Fold change vs veh, ADK / RFU, RASSF2 / Fold change vs veh, RASSF2 / RFU, WIPF1 / Fold change vs veh, WIPF1 / RFU, LARP1B / Fold change vs veh, LARP1B / RFU, RASA1 / Fold change vs veh, RASA1 / RFU, RB1 / Fold change vs veh, RB1 / RFU, PPFIA1 / Fold change vs veh, PPFIA1 / RFU, MAT2A / Fold change vs veh, MAT2A / RFU, CCT5 / Fold change vs veh, CCT5 / RFU, WDR92 / Fold change vs veh, WDR92 / RFU, CUX1 / Fold change vs veh, CUX1 / RFU, TTC7A / Fold change vs veh, TTC7A / RFU, TMEM135 / Fold change vs veh, TMEM135 / RFU, DEPTOR / Fold change vs veh, DEPTOR / RFU, CPM / Fold change vs veh, CPM / RFU, DNAJB6 / Fold change vs veh, DNAJB6 / RFU, CACNA2D3 / Fold change vs veh, CACNA2D3 / RFU, DTX4 / Fold change vs veh, DTX4 / RFU, TFCP2 / Fold change vs veh, TFCP2 / RFU, GMCL1 /// GMCL1P1 / Fold change vs veh, GMCL1 /// GMCL1P1 / RFU, AEBP2 / Fold change vs veh, AEBP2 / RFU, SNHG1 /// SNORD22 /// SNORD25 /// SNORD26 /// SNORD27 /// SNORD28 /// SNORD29 /// SNORD31 / Fold change vs veh, SNHG1 /// SNORD22 /// SNORD25 /// SNORD26 /// SNORD27 /// SNORD28 /// SNORD29 /// SNORD31 / Fold change (Aza/veh), C12orf56 (ProbeSet 11735607_a_at) / Fold change (ACY-1035/veh), C12orf56 (ProbeSet 11735607_a_at) / Fold change (Aza/veh), FGFR1OP (ProbeSet 11751329_s_at) / Fold change (ACY-1035/veh), FGFR1OP (ProbeSet 11751329_s_at) / Fold change (Aza/veh), VPS36 (ProbeSet 11739960_a_at) / Fold change (ACY-1035/veh), VPS36 (ProbeSet 11739960_a_at) / RFU SYPL1 (11715823_x_at) / Fold change /veh SYPL1 (11715823_x_at) / RFU IGFBP7 (11715501_s_at) / Fold change /veh IGFBP7 (11715501_s_at) / RFU REEP3 (11722064_at) / Fold change /veh REEP3 (11722064_at) / RFU IGLL1 (11728026_x_at) / Fold change /veh IGLL1 (11728026_x_at): dose or concentration left out as unconfirmed
# Conditions: MV-4-11 cells, 48 hours
structure (smiles),measurement,value
Nc1ncn([C@@H]2O[C@H](CO)[C@@H](O)[C@H]2O)c(=O)n1 [azacitidine],Fold change /veh ANKRD19P (11752326_a_at),1.10
